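Compound exposure: 48 hours, 5 concentrations, 96-well plates. TGI: concentration producing complete growth inhibition.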
What was measured:
Assay in all cases: NCI anticancer screen, dose series, 48 h
HCT-15 colon = tested on: HCT-15 colon
EKVX NSCLC = tested on: EKVX NSCLC
T-47D breast = tested on: T-47D breast
PC-3 prostate = tested on: PC-3 prostate
MDA-N = tested on: MDA-N
CCRF-CEM leukemia = tested on: CCRF-CEM leukemia
U251 CNS = tested on: U251 CNS
OVCAR-5 ovarian = tested on: OVCAR-5 ovarian
BT-549 breast = tested on: BT-549 breast
SK-MEL-5 melanoma = tested on: SK-MEL-5 melanoma
NCI-H460 lung = tested on: NCI-H460 lung
OVCAR-3 ovarian = tested on: OVCAR-3 ovarian
UACC-62 melanoma = tested on: UACC-62 melanoma
OVCAR-8 ovarian = tested on: OVCAR-8 ovarian
A549 NSCLC = tested on: A549 NSCLC
MOLT-4 leukemia = tested on: MOLT-4 leukemia
NCI/ADR-RES ovarian = tested on: NCI/ADR-RES ovarian
IGROV1 ovarian = tested on: IGROV1 ovarian
MCF7 breast = tested on: MCF7 breast
K-562 leukemia = tested on: K-562 leukemia
786-0 renal = tested on: 786-0 renal
NCI-H226 lung = tested on: NCI-H226 lung
SF-295 CNS = tested on: SF-295 CNS
NCI-H23 lung = tested on: NCI-H23 lung
COLO 205 colon = tested on: COLO 205 colon
RXF 393 renal = tested on: RXF 393 renal
SK-OV-3 ovarian = tested on: SK-OV-3 ovarian
RPMI-8226 leukemia = tested on: RPMI-8226 leukemia
SF-268 CNS = tested on: SF-268 CNS
SNB-19 CNS = tested on: SNB-19 CNS
SW-620 colon = tested on: SW-620 colon
A498 renal = tested on: A498 renal
HS 578T breast = tested on: HS 578T breast
MDA-MB-435 = tested on: MDA-MB-435
HT29 colon = tested on: HT29 colon
MALME-3M melanoma = tested on: MALME-3M melanoma
HCT-116 colon = tested on: HCT-116 colon
NCI-H522 lung = tested on: NCI-H522 lung
SK-MEL-28 melanoma = tested on: SK-MEL-28 melanoma
MDA-MB-231 breast = tested on: MDA-MB-231 breast
M14 melanoma = tested on: M14 melanoma
HCC-2998 colon = tested on: HCC-2998 colon
HOP-62 NSCLC = tested on: HOP-62 NSCLC
SK-MEL-2 melanoma = tested on: SK-MEL-2 melanoma
SR leukemia = tested on: SR leukemia
SN12C renal = tested on: SN12C renal
OVCAR-4 ovarian = tested on: OVCAR-4 ovarian
HL-60(TB) leukemia = tested on: HL-60(TB) leukemia
ACHN renal = tested on: ACHN renal
SNB-75 CNS = tested on: SNB-75 CNS
CAKI-1 renal = tested on: CAKI-1 renal
KM12 colon = tested on: KM12 colon
DU-145 prostate = tested on: DU-145 prostate
UO-31 renal = tested on: UO-31 renal
LOX IMVI melanoma = tested on: LOX IMVI melanoma

Nc1nc2c(C(=O)O)c3ccc([N+](=O)[O-])cc3c(=O)n2c2ccccc12
TGI (HCT-15 colon): 71.8 µM | TGI (EKVX NSCLC): > 100 µM | TGI (T-47D breast): 68.9 µM | TGI (PC-3 prostate): 74.9 µM | TGI (MDA-N): > 100 µM | TGI (CCRF-CEM leukemia): > 100 µM | TGI (U251 CNS): 92.9 µM | TGI (OVCAR-5 ovarian): > 100 µM | TGI (BT-549 breast): 95.9 µM | TGI (SK-MEL-5 melanoma): > 100 µM | TGI (NCI-H460 lung): > 100 µM | TGI (OVCAR-3 ovarian): 57 µM | TGI (UACC-62 melanoma): > 100 µM | TGI (OVCAR-8 ovarian): 34.8 µM | TGI (A549 NSCLC): > 100 µM | TGI (MOLT-4 leukemia): > 100 µM | TGI (NCI/ADR-RES ovarian): 52.4 µM | TGI (IGROV1 ovarian): 86.6 µM | TGI (MCF7 breast): 49.1 µM | TGI (K-562 leukemia): > 100 µM | TGI (786-0 renal): 48.8 µM | TGI (NCI-H226 lung): 53.9 µM | TGI (SF-295 CNS): 95.5 µM | TGI (NCI-H23 lung): 64.9 µM | TGI (COLO 205 colon): > 100 µM | TGI (RXF 393 renal): 45.6 µM | TGI (SK-OV-3 ovarian): 74.1 µM | TGI (RPMI-8226 leukemia): > 100 µM | TGI (SF-268 CNS): 94.8 µM | TGI (SNB-19 CNS): 89.6 µM | TGI (SW-620 colon): > 100 µM | TGI (A498 renal): > 100 µM | TGI (HS 578T breast): 70.6 µM | TGI (MDA-MB-435): > 100 µM | TGI (HT29 colon): > 100 µM | TGI (MALME-3M melanoma): > 100 µM | TGI (HCT-116 colon): 42.8 µM | TGI (NCI-H522 lung): 44.1 µM | TGI (SK-MEL-28 melanoma): > 100 µM | TGI (MDA-MB-231 breast): 79.1 µM | TGI (M14 melanoma): 64.2 µM | TGI (HCC-2998 colon): > 100 µM | TGI (HOP-62 NSCLC): > 100 µM | TGI (SK-MEL-2 melanoma): 79.1 µM | TGI (SR leukemia): > 100 µM | TGI (SN12C renal): 58.1 µM | TGI (OVCAR-4 ovarian): > 100 µM | TGI (HL-60(TB) leukemia): > 100 µM | TGI (ACHN renal): > 100 µM | TGI (SNB-75 CNS): 35.3 µM | TGI (CAKI-1 renal): > 100 µM | TGI (KM12 colon): > 100 µM | TGI (DU-145 prostate): 49.4 µM | TGI (UO-31 renal): > 100 µM | TGI (LOX IMVI melanoma): 32.2 µM

Source: PubChem BioAssay (NCI)
